Experimental data taken from US20220315567A1 (priority 2016, published 2022).
“And” between values parts separate entries of the source, which are not always exact repeats. Identical values can stand only once. Counter-ions that a name gives are not always drawn. Like-named read-outs stand apart in the source and are kept apart here.

Columns and labels:
[1] = target: T1, human OPRM1 (μ, MOR) (Homo sapiens, UniProt P35372); assay: cell-based; details: for EC50: PathHunter human OPRM1 Arrestin CHO-K1 cell line, read-out: cAMP EC50; for Emax: OPRM1, read-out: cAMP Emax
T1 construct: host or cells: CHO-K1
Experimental: G-protein signaling was measured via second messenger cAMP modulation. Detection of cAMP modulation was accomplished in the PathHunter human OPRM1 (μ, MOR) Arrestin CHO-K1 cell line using the Dynamic2 cAMP Kit from Cisbio.

[2] = target: T1, human OPRM1 (μ, MOR); assay: cell-based; details: for EC50: PathHunter human OPRM1 Arrestin CHO-K1 cell line, read-out: β-Arrestin EC50; for Emax: OPRM1, read-out: β-Arrestin Emax
Experimental: The Discoverx PathHunter® β-Arrestin assay is used to measure β-arrestin-2 activity. The technology is based on Enzyme Fragment Complementation (EFC) with β-galactosidase (β-Gal) as the reporter. […] EA is fused to Q-arrestin-2, and ED is fused to the C-terminus of the GPCR of interest. When a ligand binds and the GPCR is activated, Q-arrestin-2 is recruited to the receptor resulting in an ED/EA complementation, restoring f-Gal activity, which is measured using chemiluminescence. For this assay, the PathHunter human OPRM1 (μ, MOR) Arrestin CHO-K1 cell line was used.

[3] = target: T1, human OPRM1 (μ, MOR); assay type: cell-based; details: for ΔRA of compound: relative activity from EC50 and Emax of β-arrestin vs cAMP, lower RA = more G-protein biased
Experimental: In certain embodiments, the ability of a compound to activate G-protein or β-arrestin is not an on/off switch for a given pathway, but rather a continuous function. To capture this, each compound is measured for activity in cell assays that are linked to β-arrestin recruitment and G-protein signaling. By comparing the activity between these two measures (accounting for both EC50 and maximal response reached, Emax) a relative activity (RA) value is determined.
In the case of MOR it is desirable to have high activation of the G-protein pathway while reducing activation of β-arrestin. In the case of the formula above, this means a lower RA.

T1 sequence (P35372 whole entry): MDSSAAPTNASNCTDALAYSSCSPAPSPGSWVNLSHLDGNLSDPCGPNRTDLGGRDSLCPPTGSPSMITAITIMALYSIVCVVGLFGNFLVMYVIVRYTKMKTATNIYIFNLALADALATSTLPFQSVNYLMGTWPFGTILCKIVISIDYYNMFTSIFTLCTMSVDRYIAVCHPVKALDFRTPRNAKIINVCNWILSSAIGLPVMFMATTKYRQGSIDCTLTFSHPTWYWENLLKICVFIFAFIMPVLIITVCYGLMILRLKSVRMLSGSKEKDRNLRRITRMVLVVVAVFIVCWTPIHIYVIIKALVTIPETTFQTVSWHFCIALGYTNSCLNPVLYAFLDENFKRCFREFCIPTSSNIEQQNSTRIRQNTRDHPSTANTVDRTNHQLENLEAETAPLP

Row | SMILES | EC50 [1] | cAMP Emax ([1]; hydrochloride) | EC50 [2] | β-Arrestin Emax ([2]; hydrochloride) | Bias Factor (ΔRA of compound relative to ΔRA of DAMGO) × 10 ([3]; hydrochloride) | ΔRA of compound ([3]; hydrochloride) | cAMP Emax [1] [%] | β-Arrestin Emax [2] [%] | Bias Factor (ΔRA of compound relative to ΔRA of DAMGO) × 10 [3] | ΔRA of compound [3] | Emax [1] [%] | Emax [2] [%]
1 | CN(C)C(CNC(=O)N1Cc2ccc(F)cc2C1)c1ccsc1 (single isomer, unassigned) [2a-ent-(+), (+)—N-(2-(Dimethylamino)-2-(thiophen-3-yl)ethyl)-5-fluoroisoindoline-2-carboxamide hydrochloride] | 18 nM and 58 nM | 99.5, 95.4% | 1080 nM and 1010 nM | 6.57, 13.7% | −9.24 | −2.40 |  |  |  |  |  | 
2 | CNC(CNC(=O)N1Cc2ccccc2C1)c1ccccc1 (single isomer, unassigned) [Compound 38-ent-B, (+)—N-(2-(Methylamino)-2-phenylethyl)isoindoline-2-carboxamide] | 840 nM |  | > 100000 nM |  |  |  | 97.6 | 5.9 | <−14.83 | <−2.96 |  | 
3 | CN(C)C(CNC(=O)N1Cc2ccccc2C1)c1ccccc1 (single isomer, unassigned) [Compound 57] | 72 nM |  | > 100000 nM |  |  |  |  | <1 | <−14.83 | <−2.96 | 89.4 | 
4 | CN(C)C(CNC(=O)N1Cc2ccccc2C1)c1ccccc1 (single isomer, unassigned) [Compound 58] | 132 nM |  | 1890 nM |  |  |  | 109.1 | 35.2 | −1.66 | −1.65 |  | 
5 | CN(C)C(CNC(=O)N1Cc2ccc(F)cc2C1)c1ccsc1 (single isomer, unassigned; (-)) [2a-ent-(−), (−)-N-(2-(Dimethylamino)-2-(thiophen-3-yl)ethyl)-5-fluoroisoindoline-2-carboxamide hydrochloride] | 12 nM and 15 nM | 55.5, 30.4% | > 100000 nM | <1% | <−14.83 | <−2.96 |  |  |  |  |  | 
6 | CNC(CNC(=O)N1Cc2ccccc2C1)c1ccccc1 (single isomer, unassigned; (-)) [Compound 38-ent-A, (−)-N-(2-(Methylamino)-2-phenylethyl)isoindoline-2-carboxamide] | 379 nM |  | > 100000 nM |  |  |  |  |  | <−14.83 | <−2.96 | 81.6 | 3.7
7 | CN(C)C(CNC(=O)N1Cc2ccccc2C1)c1ccsc1 (stereo not shown) [Compound 1a, N-(2-(Dimethylamino)-2-(thiophen-3-yl)ethyl)isoindoline-2-carboxamide hydrochloride] | 20 nM |  | 186 nM |  |  |  |  |  | −5.75 | −2.06 | 69.2 | 5.67
8 | CN(C)C(CNC(=O)N1Cc2cccc(F)c2C1)c1ccsc1 (stereo not shown) [Compound 3a, N-(2-(Dimethylamino)-2-(thiophen-3-yl)ethyl)-4-fluoroisoindoline-2-carboxamide hydrochloride] | 14 nM |  | 310 nM |  |  |  |  |  | −5.07 | −1.99 | 94.2 | 21.9
9 | CN(C)C(CNC(=O)N1Cc2ccc(Cl)cc2C1)c1ccsc1 (stereo not shown) [Compound 4a, 5-Chloro-N-(2-(dimethylamino)-2-(thiophen-3-yl)ethyl)isoindoline-2-carboxamide hydrochloride] | > 100000 nM |  | > 100000 nM |  |  |  |  |  |  |  | 20.7 | < 1
10 | COc1ccc2c(c1)CN(C(=O)NCC(c1ccsc1)N(C)C)C2 (stereo not shown) [Compound 5a, N-(2-(Dimethylamino)-2-(thiophen-3-yl)ethyl)-5-methoxyisoindoline-2-carboxamide hydrochloride] | > 100000 nM |  | > 100000 nM |  |  |  |  |  |  |  | 5 | < 1
11 | CN(C)C(CNC(=O)N1Cc2cc(F)c(F)cc2C1)c1ccsc1 (stereo not shown) [Compound 6a, N-(2-(dimethylamino)-2-(thiophen-3-yl)ethyl)-5,6-difluoroisoindoline-2-carboxamide hydrochloride] | 9 nM |  | > 100000 nM |  |  |  |  |  | <−14.83 | <−2.96 | 21.9 | < 1
12 | CN(C)C(CNC(=O)N1CCCc2cc(F)ccc21)c1ccsc1 (stereo not shown) [Compound 7a, N-(2-(dimethylamino)-2-(thiophen-3-yl)ethyl)-6-fluoro-3,4-dihydroquinoline-1(2H)-carboxamide hydrochloride] | 407 nM |  | > 100000 nM |  |  |  |  |  | <−14.83 | <−2.96 | 92.1 | < 1
13 | CN(C)C(CNC(=O)N1CCCc2ccc(F)cc21)c1ccsc1 (stereo not shown) [Compound 8a, N-(2-(dimethylamino)-2-(thiophen-3-yl)ethyl)-7-fluoro-3,4-dihydroquinoline-1(2H)-carboxamide] | 730 nM |  | > 100000 nM |  |  |  |  |  | <−14.83 | <−2.96 | 86.9 | 6.18
14 | CN(C)C(CNC(=O)N1CCCc2ccccc21)c1ccsc1 (stereo not shown) [Compound 9a, N-(2-(dimethylamino)-2-(thiophen-3-yl)ethyl)-3,4-dihydroquinoline-1(2H)-carboxamide hydrochloride] | 512 nM |  | 4360 nM |  |  |  |  |  | −6.20 | −2.10 | 75.7 | 5.11
15 | CN(C)C(CNC(=O)NC1CCc2ccccc2C1)c1ccsc1 (stereo not shown) [Compound 10a, 1-(2-(Dimethylamino)-2-(thiophen-3-yl)ethyl)-3-(1,2,3,4-tetrahydronaphthalen-2-yl)urea hydrochloride] | 4 nM |  | > 100000 nM |  |  |  |  |  | <−14.83 | <−2.96 | 85.5 | 3.33
16 | CN(C)C(CNC(=O)NC1CCCc2ccccc21)c1ccsc1 (stereo not shown) [Compound 11a, 1-(2-(Dimethylamino)-2-(thiophen-3-yl)ethyl)-3-(1,2,3,4-tetrahydronaphthalen-1-yl)urea hydrochloride] | < 1 nM |  | 21 nM |  |  |  |  |  | 2.32 | −1.24 | 94.3 | 112
17 | Cc1ccc2c(c1)CN(C(=O)NCC(c1ccsc1)N(C)C)C2 (stereo not shown) [Compound 12a, N-(2-(Dimethylamino)-2-(thiophen-3-yl)ethyl)-5-methylisoindoline-2-carboxamide hydrochloride] | > 100000 nM |  | > 100000 nM |  |  |  |  |  |  |  | 6.33 | 2.16
18 | CN(C)C(CNC(=O)N(C)C1CCCc2ccccc21)c1ccsc1 (stereo not shown) [Compound 13a, 3-(2-(Dimethylamino)-2-(thiophen-3-yl)ethyl)-1-methyl-1-(1,2,3,4-tetrahydronaphthalen-1-yl)urea hydrochloride] | 68 nM |  | 1680 nM |  |  |  |  |  | −8.39 | −2.3 | 95.3 | 11.3
19 | CN(C)C(CNC(=O)N1Cc2ccccc2C1)c1ccc(F)cc1Cl (stereo not shown) [Compound 14a, N-(2-(2-Chloro-4-fluorophenyl)-2-(dimethylamino)ethyl)isoindoline-2-carboxamide hydrochloride] | 56 nM |  | 3960 nM |  |  |  |  |  | −5.91 | −2.07 | 102 | 61.2
20 | COc1ccc(C(CNC(=O)N2Cc3ccccc3C2)N(C)C)cc1 (stereo not shown) [Compound 15a, N-(2-(Dimethylamino)-2-(4-methoxyphenyl)ethyl)isoindoline-2-carboxamide hydrochloride] | 15 nM |  | 1370 nM |  |  |  |  |  | −8.71 | −2.35 | 108 | 44.2
21 | CN(C)C(CNC(=O)N1CC[C@@H](c2ccccc2)C1)c1ccsc1 (stereo partly shown) [Compound 41] | > 100000 nM |  | > 100000 nM |  |  |  |  |  |  |  | 9.6 | < 1
22 | CN(C)C(CNC(=O)N[C@@H]1CCc2ccccc2C1)c1ccsc1 (stereo partly shown) [Compound 47] |  |  |  |  |  |  |  |  | <−14.83 | <−2.96 |  | 
23 | CN(C)C(CNC(=O)N[C@@H]1CCc2ccccc2C1)c1ccsc1 (stereo partly shown) [Compound 48] |  |  |  |  |  |  |  |  | <−14.83 | <−2.96 |  | 
24 | C[C@@H](NC(=O)[C@@H](N)Cc1ccc(O)cc1)C(=O)NCC(=O)N(C)[C@@H](Cc1ccccc1)C(=O)NCCO [DAMGO, H-Tyr-D-Ala-Gly-NMe-Phe-Gly-OH, reference compound] |  |  |  |  |  |  |  |  |  |  | 108 | 98.3
